Measurements from publication PMC11258682, “Mechanoresponsive Protein Crystals for NADH Recycling in Multicycle Enzyme Reactions” (Journal of the American Chemical Society, 2024).

Target: Cry3Aa (Bacillus thuringiensis, UniProt P0A379)
Details: solid crystals, non-specific electrostatic adsorption likely; no PEI

Cry3Aa, sequence (P0A379 58-644 limits assumed): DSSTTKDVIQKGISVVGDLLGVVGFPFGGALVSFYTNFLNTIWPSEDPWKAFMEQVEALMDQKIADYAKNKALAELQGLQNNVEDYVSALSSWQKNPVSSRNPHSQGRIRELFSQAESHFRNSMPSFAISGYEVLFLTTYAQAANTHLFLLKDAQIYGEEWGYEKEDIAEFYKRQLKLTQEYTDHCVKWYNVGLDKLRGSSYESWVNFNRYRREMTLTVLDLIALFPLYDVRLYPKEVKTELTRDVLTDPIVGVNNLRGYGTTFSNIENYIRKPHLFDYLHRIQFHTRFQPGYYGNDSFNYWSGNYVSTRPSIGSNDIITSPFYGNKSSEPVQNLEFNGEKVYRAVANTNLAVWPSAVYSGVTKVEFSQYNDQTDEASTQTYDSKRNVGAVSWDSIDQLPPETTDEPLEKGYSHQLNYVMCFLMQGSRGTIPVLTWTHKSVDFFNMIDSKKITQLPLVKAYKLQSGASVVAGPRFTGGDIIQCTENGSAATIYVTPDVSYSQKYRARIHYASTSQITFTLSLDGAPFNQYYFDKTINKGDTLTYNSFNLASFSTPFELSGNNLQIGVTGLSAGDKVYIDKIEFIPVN

Compound: NC(=O)C1=CN([C@@H]2O[C@H](COP(=O)(O)OP(=O)(O)OC[C@H]3O[C@@H](n4cnc5c(N)ncnc54)[C@H](O)[C@@H]3O)[C@@H](O)[C@H]2O)C=CC1 [NADH]
- amount of NADH bound: 6 ± 2 µmol/g
